Structures can show the parent of a compound that is named as a salt.
Assay: Pharmacokinetic study of HC-7366 via oral (PO) administration of different formulations in beagle dogs
Assay type: in vivo
Conditions: dog, plasma, 7.5 mg/kg, PO 7.5 mpk, male beagle dogs
Experimental: 10 mL of 0.001 N HCl was used to wash the gavage catheter for each animal.

CNC(=O)c1ncn2cc(-c3c(F)ccc(NS(=O)(=O)c4cc(Cl)cnc4OC)c3F)ncc12 [HC-7366-K, 6-(3-((5-chloro-2-methoxypyridine)-3-sulfonamido)-2,6-difluorophenyl)-N-methylimidazo[1,5-a]pyrazine-1-carboxamide]
Tmax: 4 h

CNC(=O)c1ncn2cc(-c3c(F)ccc(NS(=O)(=O)c4cc(Cl)cnc4OC)c3F)ncc12 [Potassium salt Form III, 6-(3-((5-chloro-2-methoxypyridine)-3-sulfonamido)-2,6-difluorophenyl)-N-methylimidazo[1,5-a]pyrazine-1-carboxamide]
bioavailability (in a capsule, n=3): ~50%
